From US6992079B2, “Substituted 11-phenyl-dibenzazepine compounds useful for the treatment or prevention of diseases characterized by abnormal cell proliferation” (President Fellows of Harvard College, priority 1997, dated 2006)
Read-outs that look alike come from different tables or passages of the source.

Legend:
[1] = system: NIH 3T3 mouse fibroblast cells; experiment: Mitogenic assay (mitogen-induced cell proliferation); type: cell-based; details: Mus musculus, NIH3T3, 10 μM compound
[2] = system: squamous cell carcinoma (KLN-205) cells; experiment: Tumor growth in murine squamous cell carcinoma model; type: in vivo, mouse; details: KLN-205; subcutaneous injection or oral administration of 80 mg/kg/day for 30 days
[3] = system: panel of human cancer cells; experiment: In vitro screening, SRB, panel of 60 human cancer cell lines; type: cell-based
[4] = system: CCRF-CEM; experiment: In-Vitro Testing SRB panel: Leukemia; type: cell-based
[5] = system: K-562; experiment: In-Vitro Testing SRB panel: Leukemia; type: cell-based
[6] = system: A549/ATCC; type: cell-based
[7] = system: ROP-92; type: cell-based
[8] = system: NCI-H460; type: cell-based
[9] = system: SNB-75; experiment: In-Vitro Testing SRB panel: CNS Cancer; type: cell-based
[10] = system: LOX IMVI; experiment: In-Vitro Testing SRB panel: Melanoma; type: cell-based
[11] = system: SK-MEL-5; experiment: In-Vitro Testing SRB panel: Melanoma; type: cell-based
[12] = system: UACC-62; experiment: In-Vitro Testing SRB panel: Melanoma; type: cell-based
[13] = system: OVCAR-8; experiment: In-Vitro Testing SRB panel: Ovarian Cancer; type: cell-based
[14] = system: SK-OV-3; experiment: In-Vitro Testing SRB panel: Ovarian Cancer; type: cell-based
[15] = system: A498; experiment: In-Vitro Testing SRB panel: Renal Cancer; type: cell-based
[16] = system: ACHN; experiment: In-Vitro Testing SRB panel: Renal Cancer; type: cell-based
[17] = system: CARI-1; experiment: In-Vitro Testing SRB panel: Renal Cancer; type: cell-based
[18] = In-Vitro Testing SRB panel: Renal Cancer; type: cell-based
[19] = system: MC-F7; experiment: In-Vitro Testing SRB panel: Breast Cancer; type: cell-based
[20] = Homo sapiens, read-out: LC50 (the source's name)

COc1ccc2c(c1)CN(C(=O)c1ccc([N+](=O)[O-])cc1)c1ccc(Cl)cc1C2c1ccccc1Cl (stereo not shown) [Compound 30]
inhibition at 10 µM [1]: 99% | tumor growth [2]: significantly inhibited tumor growth | activity against the human cell panel [3]: exhibited activity against the human cell panel | TGI [4]: >1.00E−04 Molar | GI50 ([4]; Homo sapiens): 1.85 µM | CC50 [4, 20]: > 100 µM | Percent Growth ([4]; Log10 concentration −4.0 Molar): 39% | Percent Growth ([4]; Log10 concentration −5.0 Molar): 22% | Percent Growth ([4]; Log10 concentration −6.0 Molar): 60% | Percent Growth ([4]; Log10 concentration −7.0 Molar): 70% | Percent Growth ([4]; Log10 concentration −8.0 Molar): 73% | GI50 ([5]; Homo sapiens, K562): 1.33 µM | CC50 ([5]; Homo sapiens, K562, K-562, read-out: LC50 (the source's name)): > 100 µM | TGI ([5]; K-562): >1.00E−04 Molar | Percent Growth ([5]; K-562, Log10 concentration −4.0 Molar): 17% | Percent Growth ([5]; K-562, Log10 concentration −5.0 Molar): 24% | Percent Growth ([5]; K-562, Log10 concentration −6.0 Molar): 54% | Percent Growth ([5]; K-562, Log10 concentration −7.0 Molar): 86% | Percent Growth ([5]; K-562, Log10 concentration −8.0 Molar): 99% | TGI ([6]; A549/ATCC): >1.00E−04 Molar | Percent Growth ([6]; A549/ATCC, Log10 concentration −4.0 Molar): 23% | Percent Growth ([6]; A549/ATCC, Log10 concentration −5.0 Molar): 25% | Percent Growth ([6]; A549/ATCC, Log10 concentration −6.0 Molar): 81% | Percent Growth ([6]; A549/ATCC, Log10 concentration −7.0 Molar): 96% | Percent Growth ([6]; A549/ATCC, Log10 concentration −8.0 Molar): 96% | GI50 ([6]; Homo sapiens, A549): 3.57 µM | CC50 ([6]; Homo sapiens, A549/ATCC, read-out: LC50 (the source's name)): > 100 µM | GI50 ([7]; Homo sapiens): > 100 µM | CC50 ([7]; Homo sapiens, ROP-92, read-out: LC50 (the source's name)): > 100 µM | TGI ([7]; ROP-92): >1.00E−04 Molar | Percent Growth ([7]; ROP-92, Log10 concentration −4.0 Molar): 58% | Percent Growth ([7]; ROP-92, Log10 concentration −5.0 Molar): 69% | Percent Growth ([7]; ROP-92, Log10 concentration −6.0 Molar): 93% | Percent Growth ([7]; ROP-92, Log10 concentration −7.0 Molar): 102% | Percent Growth ([7]; ROP-92, Log10 concentration −8.0 Molar): 91% | GI50 ([8]; Homo sapiens, NCI-H460): 2.12 µM | CC50 ([8]; Homo sapiens, NCI-H460, read-out: LC50 (the source's name)): > 100 µM | TGI ([8]; NCI-H460): >1.00E−04 Molar | Percent Growth ([8]; NCI-H460, Log10 concentration −4.0 Molar): 20% | Percent Growth ([8]; NCI-H460, Log10 concentration −5.0 Molar): 16% | Percent Growth ([8]; NCI-H460, Log10 concentration −6.0 Molar): 67% | Percent Growth ([8]; NCI-H460, Log10 concentration −7.0 Molar): 97% | Percent Growth ([8]; NCI-H460, Log10 concentration −8.0 Molar): 91% | GI50 ([9]; Homo sapiens, SNB-75): 4.52 µM | CC50 ([9]; Homo sapiens, SNB-75, read-out: LC50 (the source's name)): > 100 µM | TGI ([9]; SNB-75): >1.00E−04 Molar | Percent Growth ([9]; SNB-75, Log10 concentration −4.0 Molar): 25% | Percent Growth ([9]; SNB-75, Log10 concentration −5.0 Molar): 32% | Percent Growth ([9]; SNB-75, Log10 concentration −6.0 Molar): 83% | Percent Growth ([9]; SNB-75, Log10 concentration −7.0 Molar): 103% | Percent Growth ([9]; SNB-75, Log10 concentration −8.0 Molar): 99% | TGI [10]: >1.00E−04 Molar | GI50 ([10]; Homo sapiens): 4.3 µM | CC50 [10, 20]: > 100 µM | Percent Growth ([10]; Log10 concentration −4.0 Molar): 35% | Percent Growth ([10]; Log10 concentration −5.0 Molar): 26% | Percent Growth ([10]; Log10 concentration −6.0 Molar): 91% | Percent Growth ([10]; Log10 concentration −7.0 Molar): 103% | Percent Growth ([10]; Log10 concentration −8.0 Molar): 98% | GI50 ([11]; Homo sapiens, SK-MEL-5): 3.95 µM | CC50 ([11]; Homo sapiens, SK-MEL-5, read-out: LC50 (the source's name)): > 100 µM | TGI ([11]; SK-MEL-5): >1.00E−04 Molar | Percent Growth ([11]; SK-MEL-5, Log10 concentration −4.0 Molar): 12% | Percent Growth ([11]; SK-MEL-5, Log10 concentration −5.0 Molar): 26% | Percent Growth ([11]; SK-MEL-5, Log10 concentration −6.0 Molar): 85% | Percent Growth ([11]; SK-MEL-5, Log10 concentration −7.0 Molar): 90% | Percent Growth ([11]; SK-MEL-5, Log10 concentration −8.0 Molar): 93% | GI50 ([12]; Homo sapiens, UACC-62): > 100 µM | CC50 ([12]; Homo sapiens, UACC-62, read-out: LC50 (the source's name)): > 100 µM | TGI ([12]; UACC-62): >1.00E−04 Molar | Percent Growth ([12]; UACC-62, Log10 concentration −4.0 Molar): 56% | Percent Growth ([12]; UACC-62, Log10 concentration −5.0 Molar): 52% | Percent Growth ([12]; UACC-62, Log10 concentration −6.0 Molar): 58% | Percent Growth ([12]; UACC-62, Log10 concentration −7.0 Molar): 93% | Percent Growth ([12]; UACC-62, Log10 concentration −8.0 Molar): 97% | GI50 ([13]; Homo sapiens, OVCAR-8): 7.72 µM | CC50 ([13]; Homo sapiens, OVCAR-8, read-out: LC50 (the source's name)): > 100 µM | TGI ([13]; OVCAR-8): >1.00E−04 Molar | Percent Growth ([13]; OVCAR-8, Log10 concentration −4.0 Molar): 48% | Percent Growth ([13]; OVCAR-8, Log10 concentration −5.0 Molar): 46% | Percent Growth ([13]; OVCAR-8, Log10 concentration −6.0 Molar): 84% | Percent Growth ([13]; OVCAR-8, Log10 concentration −7.0 Molar): 95% | Percent Growth ([13]; OVCAR-8, Log10 concentration −8.0 Molar): 96% | GI50 ([14]; Homo sapiens, SK-OV-3): > 100 µM | CC50 ([14]; Homo sapiens, SK-OV-3, read-out: LC50 (the source's name)): > 100 µM | TGI ([14]; SK-OV-3): >1.00E−04 Molar | Percent Growth ([14]; SK-OV-3, Log10 concentration −4.0 Molar): 66% | Percent Growth ([14]; SK-OV-3, Log10 concentration −5.0 Molar): 76% | Percent Growth ([14]; SK-OV-3, Log10 concentration −6.0 Molar): 88% | Percent Growth ([14]; SK-OV-3, Log10 concentration −7.0 Molar): 95% | Percent Growth ([14]; SK-OV-3, Log10 concentration −8.0 Molar): 93% | TGI ([15]; A498): >1.00E−04 Molar | Percent Growth ([15]; A498, Log10 concentration −4.0 Molar): 54% | Percent Growth ([15]; A498, Log10 concentration −5.0 Molar): 64% | Percent Growth ([15]; A498, Log10 concentration −6.0 Molar): 87% | Percent Growth ([15]; A498, Log10 concentration −7.0 Molar): 102% | Percent Growth ([15]; A498, Log10 concentration −8.0 Molar): 95% | GI50 ([15]; Homo sapiens, A498): > 100 µM | CC50 ([15]; Homo sapiens, A498, read-out: LC50 (the source's name)): > 100 µM | TGI [16]: >1.00E−04 Molar | CC50 [16, 20]: > 100 µM | Percent Growth ([16]; Log10 concentration −4.0 Molar): 53% | Percent Growth ([16]; Log10 concentration −5.0 Molar): 50% | Percent Growth ([16]; Log10 concentration −6.0 Molar): 94% | Percent Growth ([16]; Log10 concentration −7.0 Molar): 108% | Percent Growth ([16]; Log10 concentration −8.0 Molar): 107% | TGI ([17]; CARI-1): >1.00E−04 Molar | Percent Growth ([17]; CARI-1, Log10 concentration −4.0 Molar): 59% | Percent Growth ([17]; CARI-1, Log10 concentration −5.0 Molar): 68% | Percent Growth ([17]; CARI-1, Log10 concentration −6.0 Molar): 71% | Percent Growth ([17]; CARI-1, Log10 concentration −7.0 Molar): 108% | Percent Growth ([17]; CARI-1, Log10 concentration −8.0 Molar): 141% | GI50 ([17]; Homo sapiens): > 100 µM | CC50 ([17]; Homo sapiens, CARI-1, read-out: LC50 (the source's name)): > 100 µM | GI50 ([18]; Homo sapiens): 7.81 µM | CC50 ([18]; Homo sapiens, OO-31, read-out: LC50 (the source's name)): > 100 µM | TGI ([18]; OO-31): >1.00E−04 Molar | Percent Growth ([18]; OO-31, Log10 concentration −4.0 Molar): 43% | Percent Growth ([18]; OO-31, Log10 concentration −5.0 Molar): 43% | Percent Growth ([18]; OO-31, Log10 concentration −6.0 Molar): 107% | Percent Growth ([18]; OO-31, Log10 concentration −7.0 Molar): 94% | Percent Growth ([18]; OO-31, Log10 concentration −8.0 Molar): 98% | GI50 ([19]; Homo sapiens, MCF7): 5.38 µM | CC50 ([19]; Homo sapiens, MCF7, MC-F7, read-out: LC50 (the source's name)): > 100 µM | TGI ([19]; MC-F7): >1.00E−04 Molar | Percent Growth ([19]; MC-F7, Log10 concentration −4.0 Molar): 33% | Percent Growth ([19]; MC-F7, Log10 concentration −5.0 Molar): 36% | Percent Growth ([19]; MC-F7, Log10 concentration −6.0 Molar): 88% | Percent Growth ([19]; MC-F7, Log10 concentration −7.0 Molar): 106% | Percent Growth ([19]; MC-F7, Log10 concentration −8.0 Molar): 102%
